Experiments:
[1] = system: EGFR phosphorylation in BPK renal tissues; test: Western blot of EGFR phosphorylation in BPK renal tissue after chronic treatment; format: in vivo, mouse; conditions: BPK mice, ip 10 mg/Kg/day, PN-7 to PN-20, medulla region
Excerpt: The BPK model, a murine model of ARPKD, arose as a spontaneous mutation in an inbred colony of Balb/c mice and has been extensively characterized (Nauta J et al. Pediatr Nephrol 1993, 7:163-72; Nauta J et al. Pediatr Res 1995, 37:755-63; and Sweeney W E et al. Kidney Int 2003, 64:1310-9). Affected animals die at postnatal day (PN) 24 (average) with a range of PN-21 to PN-29 days. Extrarenal manifestations include biliary proliferation and ductal ectasia (BDE). Balb/c controls were utilized in all experiments. All animal experiments were conducted in accordance with policies of the NIH Guide for the Care and Use of Laboratory Animals and the Institutional Animal Care and Use Committee (IACUC) of the Medical College of Wisconsin. Western blot analysis of EGFR phosphorylation was conducted for BPK renal tissues following 13 days (PN-7 to PN-20) of treatment with vehicle (ip) (lane A of FIG. 10) or HET0016 (ip, 10 mg/Kg/day) (lane B or FIG. 10). […] The reduced phosphorylation of the EGFR directly correlates with the reduced size of the HET0016-treated cystic kidney, reduced KW/BW ratio, and improved morphology of the HET0016-treated cystic kidney observed in the immunohistochemistry study described above in Example 3.

[2] = system: 20-HETE synthesis (cytochrome P450 4A and 4F isoforms); test: 20-HETE production by renal microsomes of BPK mice dosed with HET-0016; format: in vivo, mouse
Procedure: Microsomes were isolated from the cystic BPK and non-cystic Balb/C mouse kidneys as described by Ito O et al. (Am J Physiol Regul Integr Comp Physiol, 280:R822-30, 2001). For the BPK and Balb/C cells, protein lysates were harvested by homogenization and subsequent sonication of the cell pellets. For the 20-HETE production assay, the isolated protein (500 μg) was incubated in 0.5 mL of 100 mM potassium phosphate buffer containing 40 μM cold arachidonic acid and 2 mM NADPH. In some samples, the 20-HETE synthesis inhibitor, HET-0016, was added at a concentration of 1 μM. The reaction was incubated at 37° C. and equilibrated with 100% O2 for 30 minutes. The reaction was stopped by acidification to pH 3.5 with 1M formic acid. The lipids were extracted in the presence of 20-HETE-d6 (2 ng) using 3:1 ethyl acetate:water and dried down under nitrogen. The samples were reconstituted in 1:1 methanol:water and the production of 20-HETE was measured using a liquid chromatograph-triple quadrupole mass spectrometer (ABI 3000, Applied Biosystems, Inc., Foster City, Calif.) as described in Williams J M et al. Hypertension, 49:687-94, 2007.
To further examine the biological role of 20-HETE in the epithelial cell proliferation, post-natal day 7, 10 or 21 day old BPK mice were treated with an intraperitoneal injection of vehicle or HET-0016 (10 mg/kg/day) 2 hours prior to sacrifice at which point the kidneys were removed for measurement of 20-HETE synthesis.

N-hydroxy-N-(4-butyl-2-methylphenyl)-formamidine [HET0016]
phosphorylation (activation) of EGFR in renal tissue [1]: reduced the phosphorylation (activation) of EGFR | effect on other metabolites of arachidonic acid formed by the kidney ([2]; 10 mg/kg/day i.p.): no apparent inhibition | inhibition of the formation of 20-HETE ([2]; 10 mg/kg/day i.p. 2 hours prior to sacrifice, renal microsomes): > 95% | production of 20-HETE ([2]; 10 mg/kg/day i.p. 2 hours prior to sacrifice, renal microsomes, vehicle 1.06±0.33): 0.04±0.02 pmoles/min/mg protein
